Results taken from patent US20230278972A1, “SUBSTITUTED HALOALKYL SULFONANILIDE HERBICIDES” (FMC Corporation, priority 2020, published 2023).

Tests used:
Type in all cases: in vivo
[1] = tested on: barnyardgrass (Echinochloa crus-galli); test: Test A preemergence, barnyardgrass; conditions: Preemergence; for Barnyardgrass plant response rating: 125 g ai/ha, visual injury on 0 to 100 scale (0 no effect, 100 complete control), approximately 10 days; for Plant response rating, Barnyardgrass: 0 to 100 scale (0 no effect, 100 complete control)
Summary of the method: (§1)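 Formulated with a surfactant in a non-phytotoxic solvent, compounds are applied to loam–sand pots, either to bare soil immediately after seeding (preemergence) or to seedlings of 2 to 10 cm bearing one to two leaves (postemergence).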

[2] = tested on: kochia (Bassia scoparia); test: Test A preemergence, kochia; conditions: Preemergence; for Kochia plant response rating: 125 g ai/ha, visual injury on 0 to 100 scale (0 no effect, 100 complete control), approximately 10 days; for Plant response rating, Kochia: 0 to 100 scale (0 no effect, 100 complete control)
Summary of the method: as §1

[3] = tested on: ragweed (common ragweed, Ambrosia artemisiifolia); test: Test A preemergence, ragweed; conditions: Preemergence; for Ragweed plant response rating: 125 g ai/ha, visual injury on 0 to 100 scale (0 no effect, 100 complete control), approximately 10 days; for Plant response rating, Ragweed: 0 to 100 scale (0 no effect, 100 complete control)
Summary of the method: as §1

[4] = tested on: Ryegrass, Italian (Italian ryegrass, Lolium multiflorum); test: Test A preemergence, Ryegrass, Italian; conditions: Preemergence; for Ryegrass, Italian plant response rating: 125 g ai/ha, visual injury on 0 to 100 scale (0 no effect, 100 complete control), approximately 10 days; for Plant response rating, Ryegrass, Italian: 0 to 100 scale (0 no effect, 100 complete control)
Summary of the method: as §1

[5] = tested on: Foxtail, Giant (giant foxtail, Setaria faberi); test: Test A preemergence, Foxtail, Giant; conditions: Preemergence; for Foxtail, Giant plant response rating: 125 g ai/ha, visual injury on 0 to 100 scale (0 no effect, 100 complete control), approximately 10 days; for Plant response rating, Foxtail, Giant: 0 to 100 scale (0 no effect, 100 complete control)
Summary of the method: as §1

[6] = tested on: pigweed (Amaranthus retroflexus); test: Test A preemergence, pigweed; conditions: for Pigweed plant response rating: 125 g ai/ha, visual injury on 0 to 100 scale (0 no effect, 100 complete control), approximately 10 days; for Plant response rating, Pigweed: 0 to 100 scale (0 no effect, 100 complete control)
Summary of the method: (§2)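 Preemergence: pigweed seeds in loam soil–sand blend received a directed soil spray of test chemicals in a non-phytotoxic solvent with surfactant. Postemergence: barnyardgrass, wheat and galium in pots of the same soil, 2 to 10 cm tall at one- to two-leaf stage, sprayed with the same formulation.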

[7] = tested on: barnyardgrass (Echinochloa crus-galli); test: Test A postemergence, barnyardgrass; conditions: Postemergence, 0 to 100 scale (0 no effect, 100 complete control); for Barnyardgrass plant response rating: 500 g ai/ha, visual injury vs untreated controls after approx. 10 days
Summary of the method: as §2

[8] = tested on: kochia (Bassia scoparia); test: Test A postemergence, kochia; conditions: Postemergence, 0 to 100 scale (0 no effect, 100 complete control); for Kochia plant response rating: 500 g ai/ha, visual injury vs untreated controls after approx. 10 days
Summary of the method: as §1

[9] = tested on: ragweed (common ragweed, Ambrosia artemisiifolia); test: Test A postemergence, ragweed; conditions: Postemergence, 0 to 100 scale (0 no effect, 100 complete control); for Ragweed plant response rating: 500 g ai/ha, visual injury vs untreated controls after approx. 10 days
Summary of the method: as §1

[10] = tested on: Ryegrass, Italian (Italian ryegrass, Lolium multiflorum); test: Test A postemergence, Ryegrass, Italian; conditions: Postemergence, 0 to 100 scale (0 no effect, 100 complete control); for Ryegrass, Italian plant response rating: 500 g ai/ha, visual injury vs untreated controls after approx. 10 days
Summary of the method: as §1

[11] = tested on: Foxtail, Giant (giant foxtail, Setaria faberi); test: Test A postemergence, Foxtail, Giant; conditions: Postemergence, 0 to 100 scale (0 no effect, 100 complete control); for Foxtail, Giant plant response rating: 500 g ai/ha, visual injury vs untreated controls after approx. 10 days
Summary of the method: as §1

[12] = tested on: pigweed (Amaranthus retroflexus); test: Test A postemergence, pigweed; conditions: Postemergence, 0 to 100 scale (0 no effect, 100 complete control); for Pigweed plant response rating: 500 g ai/ha, visual injury vs untreated controls after approx. 10 days
Summary of the method: as §1

[13] = tested on: wheat (Triticum aestivum); test: Test A postemergence, wheat; conditions: Postemergence, 0 to 100 scale (0 no effect, 100 complete control); for Wheat plant response rating: 500 g ai/ha, visual injury vs untreated controls after approx. 10 days
Summary of the method: as §2

[14] = tested on: corn (Zea mays); test: Test A postemergence, corn; conditions: Postemergence, 0 to 100 scale (0 no effect, 100 complete control); for Corn plant response rating: 500 g ai/ha, visual injury vs untreated controls after approx. 10 days
Summary of the method: as §1

[15] = tested on: blackgrass (Alopecurus myosuroides); test: Test A postemergence, blackgrass; conditions: Postemergence, 0 to 100 scale (0 no effect, 100 complete control); for Blackgrass plant response rating: 500 g ai/ha, visual injury vs untreated controls after approx. 10 days
Summary of the method: as §1

[16] = tested on: galium (catchweed bedstraw, Galium aparine); test: Test A postemergence, galium; conditions: Postemergence, 0 to 100 scale (0 no effect, 100 complete control); for Galium plant response rating: 500 g ai/ha, visual injury vs untreated controls after approx. 10 days
Summary of the method: as §2

[17] = 125 g ai/ha, visual injury approx. 10 days
[18] = 1000 g ai/ha, visual injury, approx. 10 days

| SMILES | Barnyardgrass plant response rating [1] | Plant response rating, Barnyardgrass ([1]; 500 g ai/ha) | Kochia plant response rating [2] | Plant response rating, Kochia ([2]; 500 g ai/ha) | Ragweed plant response rating [3] | Plant response rating, Ragweed ([3]; 500 g ai/ha) | Ryegrass, Italian plant response rating [4] | Plant response rating, Ryegrass, Italian ([4]; 500 g ai/ha) | Foxtail, Giant plant response rating [5] | Plant response rating, Foxtail, Giant ([5]; 500 g ai/ha) | Pigweed plant response rating [6] | Plant response rating, Pigweed ([6]; 500 g ai/ha) | Plant response rating, Barnyardgrass [7, 17] | Barnyardgrass plant response rating [7] | Plant response rating, Kochia [8, 17] | Kochia plant response rating [8] | Plant response rating, Ragweed [9, 17] | Ragweed plant response rating [9] | Plant response rating, Ryegrass, Italian [10, 17] | Ryegrass, Italian plant response rating [10] | further results |
| --- | --- | --- | --- | --- | --- | --- | --- | --- | --- | --- | --- | --- | --- | --- | --- | --- | --- | --- | --- | --- | --- |
| Cc1cc(C)c(N(S(=O)(=O)C(F)(F)F)S(=O)(=O)C(F)(F)F)cc1-c1cc(C(C)C)nn(C)c1=O [Compound 47] | 50 | 90 | 0 | 0 | 20 | 60 | 50 | 100 | 10 | 90 | 0 | 0 | 50 | 80 | 0 | 0 | 70 | 80 | 40 | 80 | Plant response rating, Foxtail, Giant [11, 17]: 40; Foxtail, Giant plant response rating [11]: 80; Plant response rating, Pigweed [12, 17]: 0; Pigweed plant response rating [12]: 0; Plant response rating, Wheat [13, 17]: 50; Wheat plant response rating [13]: 60; Plant response rating, Corn [14, 17]: 10; Corn plant response rating [14]: 0; Plant response rating, Blackgrass [15, 17]: 10; Blackgrass plant response rating [15]: 50; Plant response rating, Galium [16, 17]: 30; Galium plant response rating [16]: 40 |
| COC(=O)C1CCN(C(=O)c2cc(NS(=O)(=O)C(F)(F)F)c(C)cc2C)CC1 [Compound 50] | – | – | – | – | – | – | – | – | – | – | – | – | – | – | – | – | – | – | – | – | Plant response rating, Barnyardgrass ([1]; 1000 g ai/ha): 100; Plant response rating, Kochia ([2]; 1000 g ai/ha): 90; Plant response rating, Ragweed ([3]; 1000 g ai/ha): 80; Plant response rating, Ryegrass, Italian ([4]; 1000 g ai/ha): 70; Plant response rating, Foxtail, Giant ([5]; 1000 g ai/ha): 100; Plant response rating, Pigweed ([6]; 1000 g ai/ha): 100; Plant response rating, Barnyardgrass [7, 18]: 60; Plant response rating, Kochia [8, 18]: 60; Plant response rating, Ragweed [9, 18]: 50; Plant response rating, Ryegrass, Italian [10, 18]: 90; Plant response rating, Foxtail, Giant [11, 18]: 90; Plant response rating, Pigweed [12, 18]: 90; Plant response rating, Wheat [13, 18]: 50; Plant response rating, Corn [14, 18]: 10; Plant response rating, Blackgrass [15, 18]: 20; Plant response rating, Galium [16, 18]: 90 |
| CCn1nc(Cl)cc(-c2cc(NS(=O)(=O)C(F)(F)F)c(C)cc2C)c1=O [Compound 51] | 100 | 100 | 80 | 90 | 60 | 90 | 90 | 100 | 100 | 100 | 80 | 90 | 30 | 80 | 10 | 60 | 50 | 80 | 70 | 80 | Plant response rating, Foxtail, Giant [11, 17]: 30; Foxtail, Giant plant response rating [11]: 80; Plant response rating, Pigweed [12, 17]: 60; Pigweed plant response rating [12]: 80; Plant response rating, Wheat [13, 17]: 50; Wheat plant response rating [13]: 60; Plant response rating, Corn [14, 17]: 0; Corn plant response rating [14]: 20; Plant response rating, Blackgrass [15, 17]: 20; Blackgrass plant response rating [15]: 70; Plant response rating, Galium [16, 17]: 40; Galium plant response rating [16]: 60 |
| CCn1nc(C)cc(-c2cc(N(S(=O)(=O)C(F)(F)F)S(=O)(=O)C(F)(F)F)c(C)cc2C)c1=O [Compound 52] | 100 | 100 | 70 | 90 | 10 | 60 | 90 | 90 | 100 | 100 | 50 | 90 | 0 | 80 | 30 | 80 | 30 | 60 | 20 | 40 | Plant response rating, Foxtail, Giant [11, 17]: 0; Foxtail, Giant plant response rating [11]: 80; Plant response rating, Pigweed [12, 17]: 30; Pigweed plant response rating [12]: 50; Plant response rating, Wheat [13, 17]: 60; Wheat plant response rating [13]: 70; Plant response rating, Corn [14, 17]: 0; Corn plant response rating [14]: 0; Plant response rating, Blackgrass [15, 17]: 0; Blackgrass plant response rating [15]: 80; Plant response rating, Galium [16, 17]: 60; Galium plant response rating [16]: 80 |
